Our source for the Ki and Ratio values is ChEMBL document CHEMBL1130595, “New generation dopaminergic agents. 5. Heterocyclic bioisosteres that exploit the 3-OH-N1-phenylpiperazine dopaminergic template” (Bioorg Med Chem Lett, 1998).

One test concerns the target T1, D(4) dopamine receptor (Homo sapiens, UniProt P21917).
T1 sequence (P21917 whole entry): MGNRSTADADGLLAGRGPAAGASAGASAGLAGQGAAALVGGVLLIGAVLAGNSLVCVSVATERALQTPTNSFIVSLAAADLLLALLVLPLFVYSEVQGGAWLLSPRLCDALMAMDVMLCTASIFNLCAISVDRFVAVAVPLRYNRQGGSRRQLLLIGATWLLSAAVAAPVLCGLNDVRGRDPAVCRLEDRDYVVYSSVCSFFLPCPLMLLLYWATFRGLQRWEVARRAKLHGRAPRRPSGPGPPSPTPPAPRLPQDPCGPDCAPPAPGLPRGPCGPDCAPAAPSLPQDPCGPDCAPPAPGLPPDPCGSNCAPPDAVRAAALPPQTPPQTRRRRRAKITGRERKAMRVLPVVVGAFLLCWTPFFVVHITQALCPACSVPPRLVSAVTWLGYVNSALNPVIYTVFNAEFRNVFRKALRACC
Nature of the test: Affinity towards human Dopamine receptor D4.4 expressed in CHO cells using [3H]spiperone. The class given is cell-based.

Another test deals with D(3) dopamine receptor (Homo sapiens, UniProt P35462). Nature of the test: Affinity towards human Dopamine receptor D3 expressed in CHO cells using [3H]spiperone. Type of test: cell-based.
Test [1] addresses T2, D(2) dopamine receptor (Rattus norvegicus, UniProt P61169).
Description: Affinity of compound for the Dopamine receptor D2 in rat striatal membranes was determined for low antagonist state in rat striatal membranes using [3H]spiperone
The target of test [2] is T3, D(2) dopamine receptor (Homo sapiens, UniProt P14416). Nature of the test: Affinity towards human Dopamine receptor D2 expressed in CHO cells using [3H]spiperone. The class given is cell-based.
Test [3] concerns the target T3, D(2) dopamine receptor. Nature of the test: Ratio of the affinity against D2 receptor at low antagonist state to that of D2 receptor at high agonist state. Type of test: functional.
In test [4] the target is T2, D(2) dopamine receptor. This is another data set of the same source.
Description: Affinity for Dopamine receptor D2 in rat striatal membranes for high agonist state using [3H]quinpirole
In test [5] the target is T2, D(2) dopamine receptor. Briefly: Affinity of compound for the Dopamine receptor D2 in rat striatal membranes was determined for […] in rat striatal membranes using [3H]spiperone. Type of test: functional, cell membranes, Membrane.
The target of test [6] is T2, D(2) dopamine receptor. Nature of the test: Affinity of compound for the D2 receptors in rat striatal membranes was determined for low antagonist state in rat striatal membranes using [3H]spiperone. The class given is functional, cell membranes, Membrane.

D(3) dopamine receptor, sequence (P35462 whole entry): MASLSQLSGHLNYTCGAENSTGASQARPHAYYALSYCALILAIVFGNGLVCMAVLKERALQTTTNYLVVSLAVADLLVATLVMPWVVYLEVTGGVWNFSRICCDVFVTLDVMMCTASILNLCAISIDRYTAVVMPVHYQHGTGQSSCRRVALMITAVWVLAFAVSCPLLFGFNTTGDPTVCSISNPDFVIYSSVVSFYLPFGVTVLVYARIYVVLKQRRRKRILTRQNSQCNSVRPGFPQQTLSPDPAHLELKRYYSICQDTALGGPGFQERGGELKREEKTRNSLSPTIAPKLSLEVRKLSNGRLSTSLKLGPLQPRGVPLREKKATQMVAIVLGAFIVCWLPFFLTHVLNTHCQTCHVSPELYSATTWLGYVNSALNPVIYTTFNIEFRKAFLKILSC
T2 sequence (P61169 whole entry): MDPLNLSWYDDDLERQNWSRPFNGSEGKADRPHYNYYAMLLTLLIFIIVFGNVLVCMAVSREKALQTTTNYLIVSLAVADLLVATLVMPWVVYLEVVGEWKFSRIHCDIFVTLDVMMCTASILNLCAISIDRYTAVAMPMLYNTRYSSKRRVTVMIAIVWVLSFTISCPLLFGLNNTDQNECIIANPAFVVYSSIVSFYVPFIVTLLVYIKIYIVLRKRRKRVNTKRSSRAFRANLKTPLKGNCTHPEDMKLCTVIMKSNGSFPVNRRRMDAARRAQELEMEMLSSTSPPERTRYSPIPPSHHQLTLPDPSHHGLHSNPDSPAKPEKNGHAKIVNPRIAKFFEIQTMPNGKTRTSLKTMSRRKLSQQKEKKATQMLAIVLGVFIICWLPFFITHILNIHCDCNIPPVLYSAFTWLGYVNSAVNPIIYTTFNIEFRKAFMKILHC
T3 sequence (P14416 whole entry): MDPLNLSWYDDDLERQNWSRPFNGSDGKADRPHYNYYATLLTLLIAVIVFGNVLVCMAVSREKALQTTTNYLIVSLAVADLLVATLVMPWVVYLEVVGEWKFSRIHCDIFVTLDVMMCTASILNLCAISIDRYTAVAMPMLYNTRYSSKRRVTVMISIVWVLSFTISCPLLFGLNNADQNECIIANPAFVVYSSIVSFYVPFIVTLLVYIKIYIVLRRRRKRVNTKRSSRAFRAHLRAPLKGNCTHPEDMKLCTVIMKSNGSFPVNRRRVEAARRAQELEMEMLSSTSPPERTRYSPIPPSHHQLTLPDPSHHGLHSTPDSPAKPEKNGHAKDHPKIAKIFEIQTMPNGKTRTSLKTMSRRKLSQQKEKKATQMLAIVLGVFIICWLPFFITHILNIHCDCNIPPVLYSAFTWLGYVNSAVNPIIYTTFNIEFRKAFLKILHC

On to `Brc1ccc(N2CCN(Cc3ccccc3)CC2)c2cc[nH]c12`, for which the inhibition constant Ki – broadly, the equilibrium dissociation constant of an inhibitor or competing ligand from its target – at D(4) dopamine receptor was found to be 2.6 nM; at D(3) dopamine receptor, 56 nM; on D(2) dopamine receptor [1] it was 12.2 nM; at D(2) dopamine receptor [2] it was 47 nM; on D(2) dopamine receptor [4], 26.8 nM. Besides, the Ratio at D(2) dopamine receptor [3] was 0.5.
As for `c1ccc(CN2CCN(c3cccc4[nH]ccc34)CC2)cc1`, the Ki on D(4) dopamine receptor was determined as 14.7 nM; at D(3) dopamine receptor, 35.4 nM.
`c1ccc(CN2CCN(c3cccc4[nH]cnc34)CC2)cc1`: the Ki on D(4) dopamine receptor stood at 47 nM; at D(3) dopamine receptor, 870 nM; at D(2) dopamine receptor [1], 107 nM; on D(2) dopamine receptor [2] it was 258 nM; on D(2) dopamine receptor [4], 9.7 nM. Further, the Ratio at D(2) dopamine receptor [3] was 11.
Consider `O=C1Cc2c(cccc2N2CCN(Cc3ccccc3)CC2)N1`, for which the Ki at D(4) dopamine receptor was determined as 3 nM; on D(3) dopamine receptor it was 5.4 nM; on D(2) dopamine receptor [1], 8.1 nM; at D(2) dopamine receptor [2], 8 nM; at D(2) dopamine receptor [4] it was 0.56 nM. For the same compound, on D(2) dopamine receptor [3], the Ratio stood at 14.
In the case of `FC(F)(F)c1nc2c(N3CCN(Cc4ccccc4)CC3)cccc2[nH]1`, the Ki stood at 2.9 nM on D(4) dopamine receptor; 3.3 nM at D(2) dopamine receptor [5]; 14.7 nM on D(3) dopamine receptor; 4.1 nM on D(2) dopamine receptor [2]; 0.51 nM on D(2) dopamine receptor [4]. The Ratio on D(2) dopamine receptor [3] amounted to 6.
As for `O=c1[nH]c2cccc(N3CCN(Cc4ccccc4)CC3)c2[nH]1`, the values for the inhibitory constant (Ki) at D(4) dopamine receptor and at D(3) dopamine receptor were 14.4 nM and 56.5 nM, respectively.
Turning to `Clc1ccc2[nH]ccc2c1N1CCN(Cc2ccccc2)CC1`, the Ki at D(2) dopamine receptor [6] is 42.3 nM; at D(4) dopamine receptor it was 1.7 nM; at D(3) dopamine receptor, 95.3 nM; at D(2) dopamine receptor [2], 81.3 nM; at D(2) dopamine receptor [4], 9.1 nM. The Ratio at D(2) dopamine receptor [3] was found to be 5.
With `O=C1Cc2c(ccc(Cl)c2N2CCN(Cc3ccccc3)CC2)N1`, the inhibitory constant (Ki) on D(4) dopamine receptor came to 8.8 nM; at D(3) dopamine receptor, 591 nM; at D(2) dopamine receptor [1], 403 nM; on D(2) dopamine receptor [2] it was 540 nM; at D(2) dopamine receptor [4], 84.8 nM. For the same compound, on D(2) dopamine receptor [3], the Ratio stood at 7.
